The values that follow are results of earlier work, collected in patent publication US20190209701A1, “COMBINATION THERAPY WITH A MEK INHIBITOR, A PD-1 AXIS INHIBITOR, AND A TAXANE” (Genentech, Inc., priority 2016, published 2019).

Like-named read-outs stand apart in the source and are kept apart here.

The conditions of data set [1]: concentration-independent.
Data set [2] concerns human tumor xenograft models.
In data set [3] the test system is cancer patients who harbored a BRAF, NRAS, or KRAS mutation.
Data set [4] has as its system human tumor cell lines. As to conditions: through inhibition of MEK1 and MEK2.
Experiment in data set [5]: not given
The source holds these as a separate data set.

Experiment in data set [6]: not given
This is another data set of the same source.

With `O=C(c1ccc(F)c(F)c1Nc1ccc(I)cc1F)N1CC(O)([C@@H]2CCCCN2)C1` [Cobimetinib], in data set [1], the “binding to plasma proteins” value was 95%. In addition, the tumor regression entry in data set [2] (dose dependent, highest doses tested, CRC, malignant melanoma, breast carcinoma, lung carcinoma models) is given as “up to 100%”. Moreover, the “ERK phosphorylation in xenograft tumor models” value in data set [2] (xenograft tumor models) is “inhibits ERK phosphorylation”. Further, the “dose linearity of pharmacokinetics” value (dose range of 0.05 mg/kg (approximately 3.5 mg for 70 kg adult) to 80 mg) is reported as “linear pharmacokinetics”. The “food effect on pharmacokinetics” value (fed state compared with fasted state, healthy subjects) is recorded as “not altered”. Moreover, the “mean terminal half-life (t1/2)” value (oral) was 48.8 h. Also, the absolute bioavailability (study MEK4952g in healthy subjects, 90% CI: 39.74%, 53.06%) is 45.9%. Besides, the “effect of proton pump inhibitor rabeprazole on pharmacokinetics” value (with or without high-fat meal vs cobimetinib alone in the fasted state) is reported as “minimal effect”. In data set [3] (14 CRC patients), the “response of colorectal cancer (CRC) patients” value is “all patients experienced progressive disease”. Also, in data set [3] (Stage III of Study MEK4592g, 2 patients), the unconfirmed tumor responses is recorded as 11.1%. Also, the “patients with confirmed partial response (PR)” value in data set [3] (Study MEK4592g overall, 6 patients, all melanoma) was 6.2%. Moreover, the “patients with progressive disease” value in data set [3] (Study MEK4592g overall, 40 patients) is listed as 41.2%. Moreover, the “proliferation of a variety of human tumor cell lines” value in data set [4] is recorded as “inhibits proliferation”.
For the compound “Atezolizumab: anti-PD-L1 antibody, CAS Registry Number: 1422185-06-5”, the “exposure of fixed dose 800 mg q2w versus 1200 mg q3w” value in data set [5] (800 mg every two weeks (equivalent to 10 mg/kg q2w) vs Phase III dose of 1200 mg q3w) is given as “equivalent exposure”. In addition, the “dose linearity of pharmacokinetics” value in data set [5] (doses ≥1 mg/kg every three weeks (q3w)) was “linear and consistent with typical IgG1 antibodies”. In addition, the “Kaplan-Meier estimated overall 24-week progression-free survival (PFS) rate” value in data set [6] (Study PCD4989g, 95% CI: 12%, 53%) is recorded as 33%. Besides, the anti-tumor activity result in data set [6] (across doses from 1 to 20 mg/kg) was “anti-tumor activity has been observed”.
